Source: US12129278B2, “High-affinity peptide for tumor necrosis factor alpha and application thereof” (priority 2017, dated 2024)
Where no end group is shown, it is not given here.

What was measured:
TNF-α protein = TNF-α protein (Homo sapiens, UniProt P01375); assay: ELISA affinity assay of FITC-labeled peptide to coated TNF-α; type: binding; details: FIG. 1 / FIG. 2
Protocol: A 96-well ELISA plate was coated with 2 μg/ml TNF-α solution at 4° C. overnight. Different concentrations of peptide 632 labeled with FITC were added to each well and incubated for 2 h. After incubation, HRP-conjugated anti-FITC monoclonal antibody was added, incubated for 1 h, and then ABTS coloring solution was added. After color development for 1 h, the OD value at 410 nm was measured using a microplate reader, and GraphPad Prism 5 was used for plotting and analysis.
A 96-well ELISA plate was coated with 2 μg/ml TNF-α protein at 4° C. overnight. After blocking with BSA, different concentrations of peptide 632 labeled with FITC were added to each well and incubated for 2 h. After incubation, HRP-conjugated anti-FITC monoclonal antibody was added, incubated for 1 h, and then ABTS coloring solution was added. After color development for 1 h, the OD value at 410 nm was measured using a microplate reader, and GraphPad Prism 5 was used for plotting and analysis.

[1] = tested on: p-xylene induced ear swelling in Kunming mice; assay: p-xylene induced mouse ear swelling model of inflammation; type: in vivo; details: male Kunming mice, subcutaneous injection for 3 consecutive days, p-xylene on right auricle, 1 h, versus control group
Protocol: The experimental animals were divided into three groups: blank group, a non-related peptide control group and an antagonist peptide (peptide 632) group. Using mice as an example, male Kunming mice of 6 weeks old were injected subcutaneously at right abdomen for 3 consecutive days. After the last injection, mice of each group were smeared with p-xylene on both sides of the right auricle. 1 h after the treatment, mice were sacrificed, and the left and right ears of the mice were cut. An ear swelling puncher was used to cut down ears to obtain ear pieces. Swelling degree of mouse ear were obtained by subtracting the weighs of left ear piece from the weighs of right ear piece.
The experimental animals were divided into three groups: blank group, a non-related peptide control group and an antagonist peptide (peptide 632) group. Male Kunming mice of 6 weeks old were injected subcutaneously with peptides at right abdomen for 3 consecutive days. 30 min after the last injection, mice of each group were smeared with p-xylene (0.03 ml/per mouse) on both sides of the right auricle to induce inflammation, and the left auricle was served as normal control. 1 h after the inflammation, animals were sacrificed, and the ears of mice were completely cut and marked to distinguish the left and right ears of the same mouse. […] The ear pieces were weighed together with papers, and the results were recorded. […]

TNF-α protein, sequence (P01375 77-233 limits assumed, species assumed): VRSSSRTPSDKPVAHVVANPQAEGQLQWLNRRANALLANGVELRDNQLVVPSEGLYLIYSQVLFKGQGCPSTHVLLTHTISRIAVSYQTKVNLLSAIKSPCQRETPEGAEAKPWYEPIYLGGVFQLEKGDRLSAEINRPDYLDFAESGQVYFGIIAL

Row | Substance | binding affinity for TNF-α protein (in words) (TNF-α protein) | swelling degree of mouse ear [1] | swelling degree of mouse ear ([1]; listed as antagonist peptide)
1 | HYIDFRW [peptide 632, HYIDFRW] | high binding affinity | significantly lower than those of the control group | significantly inhibit the swelling of the mouse ear
2 | KASGSPSGFWPS [peptide 636] | high binding affinity |  | 
